According to patent US10537643B2, “Chemoembolization composition comprising anti-angiogenic agents” (CENTRE HOSPITALIER UNIVERSITAIRE VAUDOIS, priority 2010, dated 2020):

Experiments:
[1] = Stability / precipitation of sunitinib solutions; type: physicochemical
Description: However, preparing drug-loaded beads is not a straightforward procedure, especially if they should be loaded with chemotherapeutic agents of low solubility in aqueous media. This solubility can be insufficient to reach useful therapeutic dose, such as for sorafenib tosylate. In the case where apparent solubility is sufficient to reach useful therapeutic dose, it may appear that some delayed precipitation occurs; making impossible the utilization of such preparation in a clinic setup. For example, sunitinib base or malate can be dissolved in standard media used for loading anthracycline drugs, such as doxorubicine. […] In addition, no liquid oral or parenteral solution of any sunitinib salt is commercially available, that could be used to load DEBs. […] WO 2007/090897 further discloses a method for loading beads with water insoluble chemotherapeutic agents by using organic solvents. However, such an approach is not adequate for extemporaneous preparation by the medical staff.
Advantageously, this solution is isotonic to human plasma and it is safe for the parenteral applications. Noteworthy, the sugar is not limited to glucose. Other sugars or polyol could be used such as sucrose, dextran, mannitol, sorbitol or trehalose.

[2] = sunitinib per os, unique dose of 6 mg, rabbit; according to previous pharmacological studies (FDA); cited from earlier work
[3] = cited from earlier work
[4] = Liver enzymes after administration in healthy rabbits; conditions: sunitinib p.o., unique dose of 6 mg, healthy rabbit
Description: Adult healhy male New Zealand White Rabbits (n=12) weighing between 3.2-2.8 kgs were used.
DC Beads measuring between 100-300 μm (Biocompatibles) were used.
Animals were separated in 3 groups.
Liver enzymes were measured from blood samples obtained by a catheter placed in the vein of the rabbit's ear, immediately before embolization or oral administration of the drug and 6 hours.

stability of the drug ([1]; HPLC analysis, sunitinib loaded DC beads preparation)	stability of sunitinib solution (precipitation) ([1]; in presence of sugar, 5% glucose, in contrast to saline or hydrochloric acid solutions)	liver enzymes [4]	Compound	therapeutic plasmatic concentration (Cmax) [2] [ng/mL]	plasma concentrations ([3]; approved starting oral dose 50 mg/day)	patients with serious (grade 3 or 4) adverse events ([3]; oral sunitinib therapy) [%]	patients requiring dose reductions ([3]; patients treated for RCC) [%]	precipitation in solution ([1]; standard media used for loading anthracycline drugs)
verified	stable, without any precipitation	did not cause any alteration	CCN(CC)CCNC(=O)c1c(C)[nH]c(/C=C2\C(=O)Nc3ccc(F)cc32)c1C [sunitinib]	45 to 55	at least 50 ng/ml	≤ 10	50	
			CCN(CC)CCNC(=O)c1c(C)[nH]c(/C=C2\C(=O)Nc3ccc(F)cc32)c1C [sunitinib malate]					precipitate within a short period of time
